Laboratory results taken from patent publication US20260022142A1, “MACROCYCLIC IMMUNOMODULATORS” (Bristol-Myers Squibb Company, priority 2022, published 2026).
pIC50: −log10 of the molar value. Bridge positions count the residues as written; N and C are the ends. Square brackets hold non-standard residues; d marks the D form. Peptide text beside a SMILES is read from it. * marks the point of attachment. Bip = N[C@@H](Cc1ccc(-c2ccccc2)cc1)C(=O)O; Phe(3-Me) = Cc1cccc(C[C@H](N)C(=O)O)c1; 2Pal = N[C@@H](Cc1ccccn1)C(=O)O; Aad = N[C@@H](CCCC(=O)O)C(=O)O; Cha = N[C@@H](CC1CCCCC1)C(=O)O; Pen = CC(C)(S)[C@H](N)C(=O)O; Phg = N[C@H](C(=O)O)c1ccccc1; Carboxymethyl = O=C(O)C*; Orn = NCCC[C@H](N)C(=O)O; Aun = NCCCCCCCCCCC(=O)O; Dab = NCC[C@H](N)C(=O)O; Dap = NC[C@H](N)C(=O)O

Biological target: T1, PD-1/PD-L1 interaction (PE-labeled human PD-L1-Ig binding to Jurkat cell line over-expressing human PD-1) (Homo sapiens, UniProt Q15116)
T1 construct: expressed in transfected cells; host or cells: Jurkat
T1 sequence (Q15116 25-288): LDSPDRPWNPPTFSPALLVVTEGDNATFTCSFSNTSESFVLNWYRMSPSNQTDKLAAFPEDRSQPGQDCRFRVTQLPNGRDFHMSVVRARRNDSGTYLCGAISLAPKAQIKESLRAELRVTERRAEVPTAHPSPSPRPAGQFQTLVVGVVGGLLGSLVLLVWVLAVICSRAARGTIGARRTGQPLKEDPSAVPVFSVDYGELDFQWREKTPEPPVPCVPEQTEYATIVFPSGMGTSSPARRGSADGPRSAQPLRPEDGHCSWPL
Assay: Jurkat-PD-1 Cell Binding High-Content Screening Assay (CBA)
Type: cell-based
Details: Jurkat cell line over-expressing human PD-1; PE-labeled PD-L1-Ig 20 nM final; read-out: Jurkat hPD1-PDL1 IC50
In short: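 Jurkat cells over-expressing human PD-1 (8×10^3 per well, DMEM/10% FCS) preincubated with compound 2 h at 37° C, then PE-labeled human PD-L1-Ig (20 nM final) added for 1 h. Cells fixed with paraformaldehyde, Hoechst-stained, and bound fluorescence quantified by high-content imaging.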

pIC50 | Compound
8.04 | Cc1cccc(C[C@@H]2NC(=O)[C@H](CC(=O)O)NC(=O)[C@H](Cc3ccc(OCC(=O)O)cc3)NC(=O)[C@H](CN)NC(=O)CSC[C@@H](C(=O)N[C@@H](CCN)C(=O)NCCCCCCCCCCC(=O)O)NC(=O)[C@H](CCCC(N)=O)NC(=O)[C@H](C(C)C)NC(=O)[C@H](CC3CCCCC3)NC(=O)[C@H](CCN)NC(=O)[C@@H](CC(C)C)NC(=O)[C@H](CCCN)NC(=O)[C@H](Cc3ccc(O)cc3)NC(=O)[C@H](Cc3ccc(-c4ccccc4)cc3)NC(=O)[C@H](Cc3ccc(O)cc3)NC2=O)c1 [Compound 2750] ({CH2CO}-[Dap]Y(Carboxymethyl)D[Phe(3-Me)]Y[Bip]Y[Orn][dL][Dab][Cha]V[Aad](NH2)C[Dab][Aun]-OH; thioether N-14)
7.90 | Cc1cccc(C[C@@H]2NC(=O)[C@H](CC(=O)O)NC(=O)[C@H](Cc3ccc(OCC(=O)O)cc3)NC(=O)[C@H](CN)NC(=O)CSC[C@@H](C(=O)N[C@@H](CCN)C(=O)NCCCCCCCCCCC(=O)O)NC(=O)[C@H](CCCC(N)=O)NC(=O)[C@H](C(C)C)NC(=O)[C@H](CC3CCCCC3)NC(=O)[C@H](CCN)NC(=O)[C@@H](CC(C)C)NC(=O)[C@H](CCCN)NC(=O)[C@H](Cc3ccc(O)cc3)NC(=O)[C@H](Cc3ccc(-c4ccccc4)cc3)NC(=O)[C@H](C(C)C)NC2=O)c1 [Compound 2751] ({CH2CO}-[Dap]Y(Carboxymethyl)D[Phe(3-Me)]V[Bip]Y[Orn][dL][Dab][Cha]V[Aad](NH2)C[Dab][Aun]-OH; thioether N-14)
6.95 | Cc1cccc(C[C@@H]2NC(=O)[C@H](CC(=O)O)NC(=O)[C@H](Cc3ccc(OCC(=O)O)cc3)NC(=O)[C@H](CN)NC(=O)CSC(C)(C)[C@@H](C(=O)N[C@@H](CCN)C(=O)NCCCCCCCCCCC(=O)O)NC(=O)[C@H]([C@@H](C)O)NC(=O)[C@H](C(C)C)NC(=O)[C@H](CC3CCCCC3)NC(=O)[C@H](CCN)NC(=O)[C@@H](CC(C)C)NC(=O)[C@H](CCCN)NC(=O)[C@H](Cc3ccc(O)cc3)NC(=O)[C@H](Cc3ccc(-c4ccccc4)cc3)NC(=O)[C@H](C(C)C)NC2=O)c1 [Compound 2753] ({CH2CO}-[Dap]Y(Carboxymethyl)D[Phe(3-Me)]V[Bip]Y[Orn][dL][Dab][Cha]VT[Pen][Dab][Aun]-OH; thioether N-14)
7.27 | Cc1cccc(C[C@@H]2NC(=O)[C@H](CC(=O)O)NC(=O)[C@H](Cc3ccc(OCC(=O)O)cc3)NC(=O)[C@H](CN)NC(=O)CSC[C@@H](C(=O)N[C@@H](CCN)C(=O)NCCCCCCCCCCC(=O)O)NC(=O)[C@@H](CC(N)=O)NC(=O)[C@H](C(C)C)NC(=O)[C@H](CC3CCCCC3)NC(=O)[C@H](CCN)NC(=O)[C@@H](CC(C)C)NC(=O)[C@H](CCCN)NC(=O)[C@H](Cc3ccc(O)cc3)NC(=O)[C@H](Cc3ccc(-c4ccccc4)cc3)NC(=O)[C@H](C(C)C)NC2=O)c1 [Compound 2754] ({CH2CO}-[Dap]Y(Carboxymethyl)D[Phe(3-Me)]V[Bip]Y[Orn][dL][Dab][Cha]V[dN]C[Dab][Aun]-OH; thioether N-14)
7.52 | Cc1cccc(C[C@@H]2NC(=O)[C@H](CC(=O)O)NC(=O)[C@H](Cc3ccc(OCC(=O)O)cc3)NC(=O)[C@H](CN)NC(=O)CSC[C@@H](C(=O)N[C@@H](CCN)C(=O)NCCCCCCCCCCC(=O)O)NC(=O)[C@@H](CC(N)=O)NC(=O)[C@H](C(C)C)NC(=O)[C@H](CC(C)C)NC(=O)[C@H](CCN)NC(=O)[C@@H](CC(C)C)NC(=O)[C@H](CCCN)NC(=O)[C@H](Cc3ccc(O)cc3)NC(=O)[C@H](Cc3ccc(-c4ccccc4)cc3)NC(=O)[C@H](C(C)C)NC2=O)c1 [Compound 2755] ({CH2CO}-[Dap]Y(Carboxymethyl)D[Phe(3-Me)]V[Bip]Y[Orn][dL][Dab]LV[dN]C[Dab][Aun]-OH; thioether N-14)
7.39 | Cc1cccc(C[C@@H]2NC(=O)[C@H](CC(=O)O)NC(=O)[C@H](Cc3ccc(OCC(=O)O)cc3)NC(=O)[C@H](CN)NC(=O)CSC[C@@H](C(=O)N[C@@H](CCN)C(=O)NCCCCCCCCCCC(=O)O)NC(=O)[C@@H](CCC(=O)O)NC(=O)[C@H](C(C)C)NC(=O)[C@H](CC3CCCCC3)NC(=O)[C@H](CCN)NC(=O)[C@@H](CC(C)C)NC(=O)[C@H](CCCN)NC(=O)[C@H](Cc3ccc(O)cc3)NC(=O)[C@H](Cc3ccc(-c4ccccc4)cc3)NC(=O)[C@H](C(C)C)NC2=O)c1 [Compound 2756] ({CH2CO}-[Dap]Y(Carboxymethyl)D[Phe(3-Me)]V[Bip]Y[Orn][dL][Dab][Cha]V[dE]C[Dab][Aun]-OH; thioether N-14)
6.75 | Cc1cccc(C[C@@H]2NC(=O)[C@H](CC(=O)O)NC(=O)[C@H](Cc3ccc(OCC(=O)O)cc3)NC(=O)[C@H](CN)NC(=O)CSC[C@@H](C(=O)N[C@@H](CCN)C(=O)NCCCCCCCCCCC(=O)O)NC(=O)[C@@H](CCC(=O)O)NC(=O)[C@H](C(C)C)NC(=O)[C@H](CC(C)C)NC(=O)[C@H](CCN)NC(=O)[C@@H](CC(C)C)NC(=O)[C@H](CCCN)NC(=O)[C@H](Cc3ccc(O)cc3)NC(=O)[C@H](Cc3ccc(-c4ccccc4)cc3)NC(=O)[C@H](C(C)C)NC2=O)c1 [Compound 2757] ({CH2CO}-[Dap]Y(Carboxymethyl)D[Phe(3-Me)]V[Bip]Y[Orn][dL][Dab]LV[dE]C[Dab][Aun]-OH; thioether N-14)
7.00 | Cc1cccc(C[C@@H]2NC(=O)[C@H](CC(=O)O)NC(=O)[C@H](Cc3ccc(OCC(=O)O)cc3)NC(=O)[C@H](CN)NC(=O)CSC[C@@H](C(=O)N[C@@H](CCN)C(=O)NCCCCCCCCCCC(=O)O)NC(=O)[C@H](Cc3ccc(O)cc3)NC(=O)[C@H](C(C)C)NC(=O)[C@H](CC(C)C)NC(=O)[C@H](CCN)NC(=O)[C@@H](CC(C)C)NC(=O)[C@H](CCCN)NC(=O)[C@H](Cc3ccc(O)cc3)NC(=O)[C@H](Cc3ccc(-c4ccccc4)cc3)NC(=O)[C@H](C(C)C)NC2=O)c1 [Compound 2758] ({CH2CO}-[Dap]Y(Carboxymethyl)D[Phe(3-Me)]V[Bip]Y[Orn][dL][Dab]LVYC[Dab][Aun]-OH; thioether N-14)
7.15 | Cc1cccc(C[C@@H]2NC(=O)[C@H](CC(=O)O)NC(=O)[C@H](Cc3ccc(OCC(=O)O)cc3)NC(=O)[C@H](CN)NC(=O)CSC[C@@H](C(=O)N[C@@H](CCN)C(=O)NCCCCCCCCCCC(=O)O)NC(=O)[C@H](Cc3ccc(O)cc3)NC(=O)[C@H](C(C)C)NC(=O)[C@H](CC(C)C)NC(=O)[C@H](CCN)NC(=O)[C@@H](CC(C)C)NC(=O)[C@H](CCCN)NC(=O)[C@H](Cc3ccc(O)cc3)NC(=O)[C@H](Cc3ccc(-c4ccccc4)cc3)NC(=O)[C@H](CC(C)C)NC2=O)c1 [Compound 2759] ({CH2CO}-[Dap]Y(Carboxymethyl)D[Phe(3-Me)]L[Bip]Y[Orn][dL][Dab]LVYC[Dab][Aun]-OH; thioether N-14)
7.42 | Cc1cccc(C[C@@H]2NC(=O)[C@H](CC(=O)O)NC(=O)[C@H](Cc3ccc(OCC(=O)O)cc3)NC(=O)[C@H](CN)NC(=O)CSC[C@@H](C(=O)N[C@@H](CCN)C(=O)NCCCCCCCCCCC(=O)O)NC(=O)[C@H](Cc3ccc(OCC(=O)O)cc3)NC(=O)[C@H](C(C)C)NC(=O)[C@H](CC(C)C)NC(=O)[C@H](CCN)NC(=O)[C@@H](CC(C)C)NC(=O)[C@H](CCCN)NC(=O)[C@H](Cc3ccc(O)cc3)NC(=O)[C@H](Cc3ccc(-c4ccccc4)cc3)NC(=O)[C@H](C(C)C)NC2=O)c1 [Compound 2760] ({CH2CO}-[Dap]Y(Carboxymethyl)D[Phe(3-Me)]V[Bip]Y[Orn][dL][Dab]LVY(Carboxymethyl)C[Dab][Aun]-OH; thioether N-14)
6.81 | Cc1cccc(C[C@@H]2NC(=O)[C@H](CC(=O)O)NC(=O)[C@H](Cc3ccc(OCC(=O)O)cc3)NC(=O)[C@H](CN)NC(=O)CSC[C@@H](C(=O)N[C@@H](CCN)C(=O)NCCCCCCCCCCC(=O)O)NC(=O)[C@H](c3ccccc3)NC(=O)[C@H](C(C)C)NC(=O)[C@H](CC(C)C)NC(=O)[C@H](CCN)NC(=O)[C@@H](CC(C)C)NC(=O)[C@H](CCCN)NC(=O)[C@H](Cc3ccc(O)cc3)NC(=O)[C@H](Cc3ccc(-c4ccccc4)cc3)NC(=O)[C@H](C(C)C)NC2=O)c1 [Compound 2761] ({CH2CO}-[Dap]Y(Carboxymethyl)D[Phe(3-Me)]V[Bip]Y[Orn][dL][Dab]LV[Phg]C[Dab][Aun]-OH; thioether N-14)
6.70 | Cc1cccc(C[C@@H]2NC(=O)[C@H](CC(=O)O)NC(=O)[C@H](Cc3ccc(OCC(=O)O)cc3)NC(=O)[C@H](CN)NC(=O)CSC[C@@H](C(=O)N[C@@H](CCN)C(=O)NCCCCCCCCCCC(=O)O)NC(=O)[C@H](c3ccccc3)NC(=O)[C@H](C(C)C)NC(=O)[C@H](CC3CCCCC3)NC(=O)[C@H](CCN)NC(=O)[C@@H](CC(C)C)NC(=O)[C@H](CCCN)NC(=O)[C@H](Cc3ccc(O)cc3)NC(=O)[C@H](Cc3ccc(-c4ccccc4)cc3)NC(=O)[C@H](C(C)C)NC2=O)c1 [Compound 2762] ({CH2CO}-[Dap]Y(Carboxymethyl)D[Phe(3-Me)]V[Bip]Y[Orn][dL][Dab][Cha]V[Phg]C[Dab][Aun]-OH; thioether N-14)
7.26 | Cc1cccc(C[C@@H]2NC(=O)[C@H](CC(=O)O)NC(=O)[C@H](Cc3ccc(OCC(=O)O)cc3)NC(=O)[C@H](CN)NC(=O)CSC[C@@H](C(=O)N[C@@H](CCN)C(=O)NCCCCCCCCCCC(=O)O)NC(=O)[C@H](Cc3ccccn3)NC(=O)[C@H](C(C)C)NC(=O)[C@H](CC(C)C)NC(=O)[C@H](CCN)NC(=O)[C@@H](CC(C)C)NC(=O)[C@H](CCCN)NC(=O)[C@H](Cc3ccc(O)cc3)NC(=O)[C@H](Cc3ccc(-c4ccccc4)cc3)NC(=O)[C@H](C(C)C)NC2=O)c1 [Compound 2763] ({CH2CO}-[Dap]Y(Carboxymethyl)D[Phe(3-Me)]V[Bip]Y[Orn][dL][Dab]LV[2Pal]C[Dab][Aun]-OH; thioether N-14)
